Test results taken from paper PMC6934184, “Selective DNA-PKcs inhibition extends the therapeutic index of localized radiotherapy and chemotherapy” (The Journal of Clinical Investigation, 2019).

Molecular target: T1, CAMK1 (CaMK1) (Homo sapiens, UniProt Q14012)
T1 construct: purchased Thermo Fisher Scientific (Life Technologies) SelectScreen
Assay: SelectScreen Adapta
Type: biochemical
Settings: ATP 10 µM
In short: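 Percent values come from Thermo SelectScreen profiling of NU5455, combining activity and binding assays. CSF1R was run in Z'LYTE format at Km app ATP, and CAMK1 in Adapta format with ATP listed at 10.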

T1 sequence (Q14012 whole entry): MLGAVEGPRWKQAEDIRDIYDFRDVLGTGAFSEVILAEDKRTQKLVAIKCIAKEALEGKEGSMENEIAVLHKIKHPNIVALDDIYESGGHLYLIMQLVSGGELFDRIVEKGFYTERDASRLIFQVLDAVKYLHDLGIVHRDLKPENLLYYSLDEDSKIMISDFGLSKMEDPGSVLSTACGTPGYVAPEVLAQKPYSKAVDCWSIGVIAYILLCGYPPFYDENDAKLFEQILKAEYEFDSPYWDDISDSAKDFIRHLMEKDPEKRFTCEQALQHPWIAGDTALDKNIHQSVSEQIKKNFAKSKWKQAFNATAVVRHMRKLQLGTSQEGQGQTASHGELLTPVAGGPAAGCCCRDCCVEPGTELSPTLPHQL

For `CN(C(=O)CN1CCOCC1)c1ccc2sc3c(-c4cccc5c(=O)cc(N6CC7CCC(C6)O7)oc45)cccc3c2c1` [NU5455], the inhibition at 1 µM was 0.8%.
